For orientation: IC50 means the point on the concentration scale where inhibition reaches its midpoint. The MIC is the smallest concentration in the dilution series that meets the test's criterion for growth inhibition.

The values that follow come from paper PMC10672332, “Lecanicilliums A–F, Thiodiketopiperazine-Class Alkaloids from a Mangrove Sediment-Derived Fungus Lecanicillium kalimantanense” (Marine Drugs, 2023).

In brackets after ≈: the same amount, converted by molar mass. Read-outs that look alike come from different tables or passages of the source.

The nature of series [1]: Cytotoxicity, CCK-8 method. The series is classed as cell-based. The following applies: human. The procedure: (§1) Cytotoxic activity was evaluated using the human lung adenocarcinoma cell line H1975 and human hepatocellular carcinoma cell line HepG-2, using the CCK-8 method as described in our previous study. Briefly, each of the test compounds was dissolved in DMSO and further diluted to give final concentrations of 80, 40, 20, 10, 5, 2.5, and 1.25 μM, respectively. H1975 cells or HepG-2 cells (5 × 10^3 […]) were seeded in 96-well plates and treated with compounds at the indicated concentration for 24 hours and then 10 μL CCK-8 reagent was added to each well. The plates were incubated at 37 °C for another 4 hours. Finally, the optical density was measured at a wavelength of 450 nm with a Bio-Rad microplate reader. Dose–response curves were generated, and the IC50 values were calculated from the linear portion of log dose–response curves.
On the technique in general: Tetrazolium dyes change colour on reduction, which living cells bring about.

A short description of series [2]: Cytotoxicity, CCK-8 method. The series is classed as cell-based. The following applies: human. As for the experimental part:
as §1
This is another data set of the same source.

Series [3] has as its system S. aureus MRSA. The series can be described thus: Antibacterial assay, micro broth dilution. The series is classed as cell-based. The following applies: Staphylococcus aureus, micro broth dilution, LB medium, 24 hours at 37 °C, read-out: Antibacterial Activity (MIC) MRSA. As for the experimental part: (§2) The micro broth dilution method was used to evaluate the antibacterial activities of compounds 1–19 against the growth of eight common pathogens: Bacillus subtilis BS01, Micrococcus luteus, Escherichia coli ATCC 25922, Staphylococcus aureus ATCC 6538, S. aureus MRSA, Streptococcus agalactiae ATCC 13813, S. iniae, and Pseudomonas aeruginosa ATCC 9027 in 96-well polystyrene plates. Vancomycin and ciprofloxacin were used as positive controls. Briefly, wells containing 100 μL bacteria dilutions (OD600 = 0.01) in Luria–Bertani (LB) medium were supplemented with different concentrations of 1–19 (80, 40, 20, 10, 5, 2.5, 1.25, and 0.625 μg/mL), vancomycin, and ciprofloxacin (40, 20, 10, 5, 2.5, 1.25, 0.625, and 0.3125 μg/mL), respectively. The MICs were determined after 24 hours’ incubation at 37 °C with the tested compounds.

Series [4] relates to Bacillus subtilis BS01. The series can be described thus: Antibacterial assay, micro broth dilution. The series is classed as cell-based. The conditions noted are these: BS01, micro broth dilution, LB medium, 24 hours at 37 °C, read-out: Antibacterial Activity (MIC) B. subtilis. The procedure:
as §2
A general note: Broth dilution looks for growth in wells or tubes with falling amounts of substance.

For series [5], the system named is Micrococcus luteus. The series is described as follows: Antibacterial assay, micro broth dilution. Format: cell-based. The following applies: micro broth dilution, LB medium, 24 hours at 37 °C, read-out: Antibacterial Activity (MIC) M. luteus. As for the experimental part:
as §2

Series [6] relates to S. iniae. The series is described as follows: Antibacterial assay, micro broth dilution. The conditions noted are these: Streptococcus iniae; micro broth dilution, LB medium, 24 hours at 37 °C; read-out: Antibacterial Activity (MIC) S. iniae. Format: cell-based. As for the experimental part: as §2
Series [7] concerns Staphylococcus aureus ATCC 6538. The series can be described thus: Antibacterial assay, micro broth dilution. Format: cell-based. The conditions noted are these: ATCC6538, micro broth dilution, LB medium, 24 hours at 37 °C, read-out: Antibacterial Activity (MIC) S. aureus. As for the experimental part:
as §2

In series [8] the test system is Pseudomonas aeruginosa ATCC 9027. The series can be described thus: Antibacterial assay, micro broth dilution. Format: cell-based. The following applies: ATCC9027, micro broth dilution, LB medium, 24 hours at 37 °C, read-out: Antibacterial Activity (MIC) P. aeruginosa. As for the experimental part:
as §2

The subject of series [9] is Escherichia coli ATCC 25922. The series can be described thus: Antibacterial assay, micro broth dilution. The following applies: ATCC25922, micro broth dilution, LB medium, 24 hours at 37 °C, read-out: Antibacterial Activity (MIC) E. coli. Format: cell-based. The procedure:
as §2

Series [10] relates to Streptococcus agalactiae ATCC 13813. The series is described as follows: Antibacterial assay, micro broth dilution. Format: cell-based. The following applies: ATCC13813, micro broth dilution, LB medium, 24 hours at 37 °C, read-out: Antibacterial Activity (MIC) S. agalactiae. The procedure: as §2
For series [11], the system named is brine shrimps. The series is described as follows: Brine shrimp lethality bioassay. The following applies: Table 3. The series is classed as in vivo. From the text:
The methods were the same as those used in our previous studies.

`CS[C@@]12Cc3ccccc3N1C(=O)[C@]1(SC)CC3=COC=C[C@H](OC(C)=O)C3N1C2=O` (stereo partly shown) [Compound 16, versicolor A]: the 50% inhibitory concentration (IC50) at 24 h in [1] was above 80 µM; in series [2], 7.2 µM. Besides, the MIC was above 80 µg/mL in series [3]; 70 µg/mL (≈ 153 µM) in [4]; above 80 µg/mL in series [5]; above 80 µg/mL in [6]; above 80 µg/mL in series [7]; above 80 µg/mL in series [8]. The figures for the MIC in series [9] and in [10] were above 80 µg/mL and 70 µg/mL (≈ 153 µM), respectively.

With `CS[C@@]12CC3=COC=C[C@H](OC(C)=O)[C@H]3N1C(=O)[C@]1(SC)CC3=CC=C[C@H](O)[C@H]3N1C2=O` [Compound 13, bisdethiobis(methylsulfanyl)apoaranotin], the IC50 at 24 h in series [1] and in series [2] was above 80 µM in each case. Also, the minimal inhibitory concentration (MIC) in series [3], in series [4], in series [5], in [6], in [7] and in series [8] was above 80 µg/mL each time. Also, the minimal inhibitory concentration (MIC) in [9] and in [10] was above 80 µg/mL in each case.

`CS[C@@H]1NC(=O)[C@@](Cc2ccccc2)(SC)NC1=O` [Compound 19, citriperazine B]: the 50% inhibitory concentration (IC50) at 24 h in series [1] (HepG-2 cells (hepatocellular carcinoma cell line), HepG-2 cells, CCK-8, 24 hours treatment, read-out: Cytotoxicity (IC50) against HepG-2) is above 80 µM; in series [2] (H1975 cells (lung adenocarcinoma cell line), H1975 cells, CCK-8, 24 hours treatment, read-out: Cytotoxicity (IC50) against H1975) it was above 80 µM. In addition, the MIC was above 80 µg/mL in series [3]; 80 µg/mL (≈ 270 µM) in [4]; 70 µg/mL (≈ 236 µM) in series [5]; above 80 µg/mL in [6]; above 80 µg/mL in series [7]; above 80 µg/mL in [8]. Also, the minimum inhibitory concentration (MIC) in [9] and in series [10] was above 80 µg/mL in each case.

In the case of `CSC12CC3=COC=CC(OC(C)=O)C3N1C(=O)C1(SC)CC34OC3C3OC3C(OC(C)=O)C4N1C2=O` (stereo not shown) [Compound 3, Lecanicillium C], in series [11], the “Toxicity (TC50) Brine Shrimp” value is above 80 µg/mL. The half-maximal inhibitory concentration (IC50) at 24 h in [1] and in series [2] was above 80 µM each time. In addition, the MIC in series [3], in series [4], in series [5], in series [6], in [7] and in [8] was above 80 µg/mL each time. Besides, the MIC in series [9] and in [10] was above 80 µg/mL each time.

As for `O=C(O)c1cn(C2CC2)c2cc(N3CCNCC3)c(F)cc2c1=O` [CFN, Ciprofloxacin, reference compound], the minimum inhibitory concentration (MIC) in series [4] was found to be 0.6 µg/mL (≈ 1.81 µM); in [6] it was 2.5 µg/mL (≈ 7.54 µM); in [7], 0.6 µg/mL (≈ 1.81 µM); in series [8], 0.6 µg/mL (≈ 1.81 µM); in [9], 0.6 µg/mL (≈ 1.81 µM); in series [10] it was 5 µg/mL (≈ 15.1 µM).

Take `CSC12CC3=COC=CC(O)C3N1C(=O)C1(Cc3ccccc3O1)NC2=O` (stereo not shown) [Compound 2, Lecanicillium B]: in series [11], the “Toxicity (TC50) Brine Shrimp” value was above 80 µg/mL. In addition, the IC50 at 24 h in series [1] and in series [2] was above 80 µM in each case. The MIC was above 80 µg/mL in series [3]; 80 µg/mL (≈ 207 µM) in [4]; 60 µg/mL (≈ 155 µM) in series [5]; 70 µg/mL (≈ 181 µM) in series [6]; above 80 µg/mL in series [7]; above 80 µg/mL in [8]. Moreover, the minimum inhibitory concentration (MIC) in [9] and in [10] was above 80 µg/mL in each case.
